Experimental data taken from patent US7872030B2, “Use of 2-[5-(4-fluorophenyl)-3-pyridylmethylaminomethyl]-chromane and its physiologically acceptable salts” (Merck Patent GmbH, priority 2001, dated 2011).

What was measured:
[1] = test system: rats with nigrostriatal degeneration; test: Striatonigral degeneration in the rat, turning behavior; type: in vivo; details: 6-hydroxydopamine plus quinolinic acid lesioned rats
From the text: Another more recent animal model is the striatonigral degeneration approach in the rat according to […] et al., J. Neural Transm. Suppl., 1999; 55: 103-113. Rats receive an unilateral injection of 6-hydroxydopamine into the left medial forebrain bundle followed by an injection of quinolinic acid into the ipsilateral striatum inducing nigrostriatal degeneration. The degeneration results in turning behavior to a challenge with dopaminomimetics such as apomorphine or amphetamine. Turning behavior is measured by an automated recorder.

[2] = test system: reserpinized rat or mouse; test: Reserpinized rat or mouse (akinesia); type: in vivo; details: 24 h after reserpine; for distance travelled and time active: activity meters
Experimental: A typical animal model is the reserpinized rat or mouse (e.g. […]. Neural Transm.-Park. Dis. Dement. Sect., 1994; 7: 133-142; M. Gossel et al., J. Neural Transm.-Park. Dis. Dement. Sect., 1995; 10: 27-39; N. R. Hughes et al., Mov. Disord., 1998; 13: 228-233). Reserpine is a potent depleter of monoamines and produces nearly complete akinesia in both species. Prominent 24 h after application, the distance travelled and the time active is nearly zero as measured in conventional activity meters.

dopamine D3 receptor = dopamine D3 receptor (Homo sapiens, UniProt P35462)
Chain of dopamine D3 receptor (P35462 whole entry, species assumed): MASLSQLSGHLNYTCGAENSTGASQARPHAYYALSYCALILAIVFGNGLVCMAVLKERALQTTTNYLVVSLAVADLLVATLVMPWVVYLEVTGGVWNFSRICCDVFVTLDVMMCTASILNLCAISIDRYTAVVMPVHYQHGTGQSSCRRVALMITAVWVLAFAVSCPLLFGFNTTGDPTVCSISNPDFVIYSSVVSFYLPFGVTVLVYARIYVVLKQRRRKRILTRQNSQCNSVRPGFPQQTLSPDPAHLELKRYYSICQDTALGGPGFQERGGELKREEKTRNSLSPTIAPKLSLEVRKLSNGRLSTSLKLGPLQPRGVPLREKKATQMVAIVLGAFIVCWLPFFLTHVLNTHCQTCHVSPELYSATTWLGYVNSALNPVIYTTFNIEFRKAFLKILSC

dopamine D2 receptor = dopamine D2 receptor (Homo sapiens, UniProt P14416); test: D2 antagonism; details: under increased doses
Chain of dopamine D2 receptor (P14416 whole entry, species assumed): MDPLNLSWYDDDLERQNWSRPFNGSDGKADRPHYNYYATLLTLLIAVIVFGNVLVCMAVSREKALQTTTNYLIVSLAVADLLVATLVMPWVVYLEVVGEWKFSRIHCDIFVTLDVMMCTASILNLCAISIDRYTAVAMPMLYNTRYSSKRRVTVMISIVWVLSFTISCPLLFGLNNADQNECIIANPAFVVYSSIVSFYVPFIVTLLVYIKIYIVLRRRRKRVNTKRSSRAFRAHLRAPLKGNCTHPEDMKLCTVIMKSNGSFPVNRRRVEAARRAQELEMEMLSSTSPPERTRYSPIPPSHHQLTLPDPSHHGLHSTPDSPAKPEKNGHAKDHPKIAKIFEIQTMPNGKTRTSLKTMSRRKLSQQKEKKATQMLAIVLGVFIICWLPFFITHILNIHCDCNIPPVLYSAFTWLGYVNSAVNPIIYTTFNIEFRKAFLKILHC

[3] = test system: neuroleptics sensitized monkey; test: Neuroleptics sensitized monkey; type: in vivo; details: after haloperidol challenge
From the text: Another typical animal model is the neuroleptics sensitized monkey according to D. E. Casey, Psychopharmacology, 1996; 124: 134-140. Monkeys treated repeatedly with conventional neuroleptics are highly sensitive to a subsequent challenge dose of neuroleptic drugs. When challenged, the monkeys immediately show extrapyramidal motor side effects such as dystonia, dyskinesias, akathisia, and bradykinesia which are rated by a scoring system. The conventional neuroleptic drug haloperidol is given as a challenge.

[4] = test system: Parkinsonian cynomolgus monkey; test: Adverse effects of chronic l-dopa therapy in MPTP Parkinsonian cynomolgus monkey; type: in vivo; details: MPTP monkeys chronically treated with l-dopa
Experimental: Treatment of adverse effects of conventional anti-Parkinsonian drugs as defined above are determined in a modification of the animal model of the Parkinsonian cynomolgus monkey according to P. J. Blanchet et al., Exp. Neurology 1998; 153: 214-222. Monkeys render parkinsonian by repeated injections of 1-methyl-4-phenyl-1,2,3,6-tetrahydropyridine (MPTP). The Parkinsonian monkeys are chronically treated with the standard l-dopa therapy according to P. J. Blanchet et al., Mov. Disord., 1998; 13: 798-802. Longterm treatment with l-dopa induces extrapyramidal motor side effects and psychotic states which are both qualitatively and quantitatively, assessed by the Abnormal Involuntary Movement Scale (P. J. Blanchet et al., Mov. Disord. 1998; 13: 798-802) for different body parts (face, neck, trunk, each limb) and by rating for psychotic states by observing the monkey's attention, reactivity and mobility.

[5] = test system: rats challenged with haloperidol; test: Neuroleptics-induced muscle rigidity in rats; details: rat, in vivo
From the text: A typical animal model is neuroleptics-induced muscle rigidity in rats according to S. Wolfarth et al, Arch. Pharmacol. 1992; 345: 209-212. Rats are challenged with the conventional neuroleptic drug haloperidol which enhances muscle tone. Muscle tone is electromechanically measured as the resistence to passive flexion and extension of the hind limb.

Row | SMILES | turning behavior induced by apomorphine or amphetamine [1] | akinesia [2] | distance travelled and time active [2] | affinity to the dopamine D3 receptor (dopamine D3 receptor) | D2 antagonism (dopamine D2 receptor) | extrapyramidal motor side effects (dystonia, dyskinesias, akathisia, bradykinesia; score) [3] | overall choreiform dyskinesias and dystonic dyskinesias (Abnormal Involuntary Movement Scale) [4] | psychotic states (attention, reactivity, mobility rating) [4] | muscle tone enhanced by haloperidol (resistance to passive flexion and extension of the hind limb) [5]
1 | Fc1ccc(-c2cncc(CNCC3CCc4ccccc4O3)c2)cc1 (racemic) [(R/S)-(−/+)-2-[5-(4-fluorophenyl)-3-pyridylmethylaminomethyl]-chromane] | dose-dependently antagonized | dose-dependently reduced akinesia | restored distance travelled and time active to about the level of normal animals | high affinity | exhibit a D2 antagonism | dose-dependently reduce the extrapyramidal motor side effects | reduced | reduced | decrease the mucle tone enhanced by haloperidol
2 | Fc1ccc(-c2cncc(CNC[C@@H]3CCc4ccccc4O3)c2)cc1 [(S)-(+)-2-[5-(4-fluorophenyl)-3-pyridylmethylaminomethyl]-chromane] | dose-dependently antagonized | dose-dependently reduced akinesia | restored distance travelled and time active to about the level of normal animals | high affinity | exhibit a D2 antagonism | dose-dependently reduce the extrapyramidal motor side effects | reduced | reduced | decrease the mucle tone enhanced by haloperidol
